# Patent publication US8206901B2, “Method for the synthesis of a bifunctional complex” (Nuevolution A/S, priority 2002, dated 2012)
# Columns and labels:
# [1] = target: T1, integrin αv/βIII receptor (Homo sapiens, UniProt P05106+P06756); assay: Selection of 25-member split-and-mix library on immobilised integrin αVβ3, PCR, cloning and sequencing (Example 9); type: binding; details: after selection; 18 successful sequences
# T1 construct: purchased Bachem
# Method: Maxisorp ELISA wells (NUNC A/S, Denmark) were coated with each 100 μL 2 μg/mL integrin αVβ3 (Bachem) in PBS buffer [2.8 mM NaH2PO4, 7.2 mM Na2HPO4, 0.15 M NaCl, pH 7.2] overnight at 4° C. Then the integrin solution was substituted for 200 μl blocking buffer [TBS, 0.05% Tween 20 (Sigma P-9416), 1% bovine serum albumin (Sigma A-7030), 1 mM MnCl2] which was left on for 1 hour at room temperature. Then the wells were washed 2 times with 250 μl blocking buffer and 5 μl of the encoded library was added to the wells after diluting it 20 times with blocking buffer. Following 2 hours incubation at room temperature the wells were washed with 20×250 μl blocking buffer.
# After the final wash the wells were cleared of wash buffer and subsequently inverted and exposed to UV light at 300-350 nm for 30 seconds using a trans-illuminator set at 70% power.
# 100 μl blocking buffer without Tween-20 was immediately added to each well, the wells were shaken for 30 seconds, and the solutions containing eluted templates were removed for PCR analysis. […]
# Individual E. coli clones were picked and transferred to PCR wells containing 50 μl water. Colonies were incubated at 94° C. for 5 minutes and 20 μl was used in a 25 μl PCR reaction with 5 pmol of each TOPO primer M13 forward & M13 reverse (AH365/AH366) and Ready-To-Go PCR beads (Amersham) using PCR program EKO50: 94° C. […]
# αv/βIII receptor = αv/βIII receptor (Homo sapiens, UniProt P05106+P06756); details: cited from earlier work
# αv/βIII receptor, sequence (P06756 31-889 limits assumed): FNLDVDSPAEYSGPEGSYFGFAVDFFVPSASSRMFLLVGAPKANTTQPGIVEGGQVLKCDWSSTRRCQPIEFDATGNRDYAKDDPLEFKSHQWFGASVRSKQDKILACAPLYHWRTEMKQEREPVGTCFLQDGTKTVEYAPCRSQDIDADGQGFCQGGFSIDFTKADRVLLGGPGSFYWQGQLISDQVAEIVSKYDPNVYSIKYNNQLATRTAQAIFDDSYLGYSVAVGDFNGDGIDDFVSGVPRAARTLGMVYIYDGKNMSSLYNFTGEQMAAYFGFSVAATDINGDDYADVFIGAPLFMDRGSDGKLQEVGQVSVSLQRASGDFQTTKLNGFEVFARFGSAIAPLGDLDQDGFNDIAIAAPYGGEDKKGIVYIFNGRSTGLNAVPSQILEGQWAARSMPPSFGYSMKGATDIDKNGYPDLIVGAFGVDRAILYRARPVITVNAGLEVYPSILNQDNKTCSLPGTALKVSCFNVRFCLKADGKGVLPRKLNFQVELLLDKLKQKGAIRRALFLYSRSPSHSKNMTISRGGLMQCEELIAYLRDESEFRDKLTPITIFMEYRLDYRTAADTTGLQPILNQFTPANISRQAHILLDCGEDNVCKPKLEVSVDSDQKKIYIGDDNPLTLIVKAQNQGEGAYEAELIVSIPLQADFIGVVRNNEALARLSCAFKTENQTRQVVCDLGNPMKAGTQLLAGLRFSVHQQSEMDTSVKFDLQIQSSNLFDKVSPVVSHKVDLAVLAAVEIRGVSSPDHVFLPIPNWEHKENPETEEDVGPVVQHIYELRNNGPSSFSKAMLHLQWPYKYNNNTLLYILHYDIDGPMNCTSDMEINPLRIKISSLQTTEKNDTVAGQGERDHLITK
# αv/βIII receptor, sequence (P06756 891-1048 partner limits assumed): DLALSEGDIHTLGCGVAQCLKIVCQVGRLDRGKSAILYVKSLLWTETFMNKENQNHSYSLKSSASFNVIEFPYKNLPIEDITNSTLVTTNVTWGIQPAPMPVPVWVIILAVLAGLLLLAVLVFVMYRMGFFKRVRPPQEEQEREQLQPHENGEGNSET
# αv/βIII receptor, sequence (P05106 27-788): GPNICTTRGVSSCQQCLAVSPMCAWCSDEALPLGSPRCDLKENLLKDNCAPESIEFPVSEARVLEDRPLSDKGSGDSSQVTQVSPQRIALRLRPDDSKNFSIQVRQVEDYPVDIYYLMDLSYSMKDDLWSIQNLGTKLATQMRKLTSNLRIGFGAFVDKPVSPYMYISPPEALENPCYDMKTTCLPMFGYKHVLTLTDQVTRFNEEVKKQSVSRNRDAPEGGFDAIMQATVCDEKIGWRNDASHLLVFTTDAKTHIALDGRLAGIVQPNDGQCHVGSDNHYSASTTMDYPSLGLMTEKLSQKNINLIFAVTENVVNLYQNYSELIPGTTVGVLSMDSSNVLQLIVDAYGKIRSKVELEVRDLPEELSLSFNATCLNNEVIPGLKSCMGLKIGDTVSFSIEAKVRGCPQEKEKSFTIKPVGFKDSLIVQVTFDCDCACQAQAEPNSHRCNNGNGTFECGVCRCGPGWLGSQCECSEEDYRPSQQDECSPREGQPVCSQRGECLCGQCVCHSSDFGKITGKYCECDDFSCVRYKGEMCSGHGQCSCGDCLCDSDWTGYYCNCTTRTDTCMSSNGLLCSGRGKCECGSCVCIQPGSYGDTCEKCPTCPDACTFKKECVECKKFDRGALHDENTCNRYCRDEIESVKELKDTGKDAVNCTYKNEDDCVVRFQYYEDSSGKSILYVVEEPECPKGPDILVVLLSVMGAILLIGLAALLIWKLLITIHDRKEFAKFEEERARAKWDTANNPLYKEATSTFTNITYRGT
# T1 sequence (P06756 31-889 limits assumed): as the sequence (P06756 31-889 limits assumed) above
# T1 sequence (P06756 891-1048 partner limits assumed): as the sequence (P06756 891-1048 partner limits assumed) above
# T1 sequence (P05106 27-788): as the sequence (P05106 27-788) above
smiles,measurement,setting,value
O=C(O)CC(NC(=O)CNC(=O)CCCc1ccc2c(n1)NCCC2)C(=O)O (stereo not drawn) [Feuston 5],output sequences identifying the exact ligand,[1],16 out of 18
same,affinity for αv/βIII compared to the RGD-tripeptide,αv/βIII receptor,ten-fold increased affinity
same,Kd,αv/βIII receptor; αv/βIII,111 nM
